Laboratory results: patent EP3868760A1, “2,3,5-SUBSTITUTED PYRROLO[2,3-B]PYRIDINES AS ERBB MODULATORS USEFUL FOR TREATING CANCER” (PearlRiver Bio GmbH, priority 2020, dated 2021)

Legend:
HER2 INS YVMA = target: T1, HER2 INS YVMA (Homo sapiens, UniProt P04626, INS775YVMA); experiment: Her2 Exon 20 InsYVMA Lance kinase activity assay; type: biochemical; conditions: 1 h incubation, 1,6 µM ATP
T1 construct: purchased DPF
Description: This protocol describes how the Lance Kinase Activity Assay was performed to determine IC50 values of compounds of general formula (I) against HER2 INS YVMA. The principle behind this enzymatic assay is based upon the phosphorylation of the Ulight-peptide substrate. It is detected by using a specific EU-labeled anti-phospho peptide antibody. The binding of the Eu labeled anti-phospho peptide antibody to the phosphorylated ULight labeled peptide gives rise to a FRET-signal.
Binding of an inhibitor to the kinase prevents phosphorylation of the Ulight-substrate, resulting in a loss of FRET. In table 2 is summarized the relevant information for the LANCE assay. Table 2: Reagents, stock concentrations and final assay concentrations for Her2 INS YVMA.
The compounds of general formula (I) summarized in Table 3 were serial diluted from a 10 mM DMSO stock solution 1:3 over 8 steps in a total volume of 20 µl.
For every sample, 8 µl of kinase-substrate mix was transferred into a suitable assay plate (e.g. Corning #3673). Compound was added via pintool transfer (10nl/well) using a Biomek FX robot (BeckmanCoulter). Reaction was started by addition of 2µl ATP working solution and mixed using variomag teleshaker (Thermo Fischer Scientific). After 1 h incubation at room temperature the reaction was stopped with 10µl detection mix containing the Eu-labeled phosphospecific antibody and 10mM EDTA. After a second incubation period of 1 h at room temperature the FRET signal was measured at 340 nm excitation, 665 nm and 615 nm emission (for the ULight-substrate and Eu-AB, respectively) with an Envision spectrophotometer (Perkin Elmer, Waltham, MA, USA) with 50 µs delay and 300 µs integration time. IC50 values were determined from the sigmoidal dose response curves with the software Quattro Workflow (Quattro GmbH, Munich, Germany).

[1] = tested on: EGFR Exon 20 InsNPH Ba/F3; experiment: EGFR Exon 20 InsNPH Ba/F3 CellTiter-Glo assay; type: cell-based; conditions: Mus musculus, BaF3; 72 h incubation; read-out: EGFR Exon 20 InsNPH Ba/F3 CTG IC50
Description: (§1) The CellTiter-Glo Luminescent Cell Viability Assay (Promega) is a homogeneous method of determining the number of viable cells in culture. It is based on quantification of ATP, indicating the presence of metabolically active cells. Cells are seeded on day 1 at cell numbers that assure assay linearity and optimal signal intensity. After incubation for 24h in humidified chambers at 37°C and 5% CO2, compounds in DMSO are added at different concentrations. Cells are further incubated for 72 h at 37°C and 5% CO2. Cells treated with the compound vehicle DMSO are used as positive controls and cells treated with 10 µM Staurosporine serve as negative controls. At day 5 the CellTiter Glo Reagent is prepared according to the instructions of the kit (Promega Inc.): Reagent is mixed 1:1 with cell culture medium. Thereon, mixture and assay plates are equilibrated at room temperature for 20 min. Equal volumes of the reagent-medium-mixture is added to the volume of culture medium present in each well. The plates are mixed at ∼200 rpm for 2 minutes on an orbital shaker. The microplates are then incubated at room temperature for 10 minutes for stabilization of the luminescent signal. Following incubation the luminescence is recorded on a Victor microplate reader (Perkin Elmer) using a 200 ms integration time. The data is then analyzed with Excel using the XLFIT Plugin (dose response Fit 205) for IC50-determination. As quality control the Z'-factor is calculated from 16 positive and negative control values. Only assay results showing a Z'-factor ≥ 0.5 are used for further analysis.

[2] = tested on: Her2 Exon 20 InsYVMA Ba/F3; experiment: Her2 Exon 20 InsYVMA Ba/F3 CellTiter-Glo assay; type: cell-based; conditions: Mus musculus, BaF3; 72 h incubation; read-out: Her2 Exon 20 InsYVMA Ba/F3 CTG IC50
Description: as §1

Cuto-17 = Cuto-17 CellTiter-Glo assay; type: cell-based; conditions: CUTO17; 72 h incubation; read-out: Cuto-17 CTG IC50
Description: as §1

EGFR T790M L858R = EGFR T790M L858R (Homo sapiens, UniProt P00533, L858R/T790M); experiment: EGFR T790ML858R Lance assay; type: biochemical
EGFR wt = EGFR wt (Homo sapiens, UniProt P00533); experiment: EGFR wt Lance assay; type: biochemical
H1975 = H1975 CellTiter-Glo assay; type: cell-based; conditions: Homo sapiens, NCI-H1975; 72 h incubation; read-out: H1975 CTG IC50
Description: as §1

A431 = A431 CellTiter-Glo assay; type: cell-based; conditions: Homo sapiens, A-431; 72 h incubation; read-out: A431 CTG IC50
Description: as §1

EGFR vIII Ba/F3 = EGFR vIII Ba/F3 CellTiter-Glo assay; type: cell-based; conditions: Mus musculus, BaF3; 72 h incubation; read-out: EGFR vIII Ba/F3 CTG IC50
Description: as §1

EGFR L858R = EGFR L858R (Homo sapiens, UniProt P00533, L858R); experiment: EGFR L858R Lance assay; type: biochemical
EGFR (del746-750) = EGFR (del746-750) (Homo sapiens, UniProt P00533, DEL746-750); experiment: EGFR (del746-750) Lance assay; type: biochemical
EGFR L858R T790M Ba/F3 = experiment: EGFR L858RT790M Ba/F3 CellTiter-Glo assay; type: cell-based; conditions: Mus musculus, BaF3; 72 h incubation; read-out: EGFR L858R T790M Ba/F3 CTG IC50
Description: as §1, with “The microplates are then incubated at room temperature for 10 minutes for stabilization of the luminescent signal.” left out, “Only assay results showing a Z'-factor ≥ 0.5 are used for further analysis.” left out

EGFR L858R Ba/F3 = EGFR L858R Ba/F3 CellTiter-Glo assay; type: cell-based; conditions: Mus musculus, BaF3; 72 h incubation; read-out: EGFR L858R Ba/F3 CTG IC50
Description: as §1, with “The microplates are then incubated at room temperature for 10 minutes for stabilization of the luminescent signal.” left out, “Only assay results showing a Z'-factor ≥ 0.5 are used for further analysis.” left out

EGFR wt, sequence (P00533 25-1210): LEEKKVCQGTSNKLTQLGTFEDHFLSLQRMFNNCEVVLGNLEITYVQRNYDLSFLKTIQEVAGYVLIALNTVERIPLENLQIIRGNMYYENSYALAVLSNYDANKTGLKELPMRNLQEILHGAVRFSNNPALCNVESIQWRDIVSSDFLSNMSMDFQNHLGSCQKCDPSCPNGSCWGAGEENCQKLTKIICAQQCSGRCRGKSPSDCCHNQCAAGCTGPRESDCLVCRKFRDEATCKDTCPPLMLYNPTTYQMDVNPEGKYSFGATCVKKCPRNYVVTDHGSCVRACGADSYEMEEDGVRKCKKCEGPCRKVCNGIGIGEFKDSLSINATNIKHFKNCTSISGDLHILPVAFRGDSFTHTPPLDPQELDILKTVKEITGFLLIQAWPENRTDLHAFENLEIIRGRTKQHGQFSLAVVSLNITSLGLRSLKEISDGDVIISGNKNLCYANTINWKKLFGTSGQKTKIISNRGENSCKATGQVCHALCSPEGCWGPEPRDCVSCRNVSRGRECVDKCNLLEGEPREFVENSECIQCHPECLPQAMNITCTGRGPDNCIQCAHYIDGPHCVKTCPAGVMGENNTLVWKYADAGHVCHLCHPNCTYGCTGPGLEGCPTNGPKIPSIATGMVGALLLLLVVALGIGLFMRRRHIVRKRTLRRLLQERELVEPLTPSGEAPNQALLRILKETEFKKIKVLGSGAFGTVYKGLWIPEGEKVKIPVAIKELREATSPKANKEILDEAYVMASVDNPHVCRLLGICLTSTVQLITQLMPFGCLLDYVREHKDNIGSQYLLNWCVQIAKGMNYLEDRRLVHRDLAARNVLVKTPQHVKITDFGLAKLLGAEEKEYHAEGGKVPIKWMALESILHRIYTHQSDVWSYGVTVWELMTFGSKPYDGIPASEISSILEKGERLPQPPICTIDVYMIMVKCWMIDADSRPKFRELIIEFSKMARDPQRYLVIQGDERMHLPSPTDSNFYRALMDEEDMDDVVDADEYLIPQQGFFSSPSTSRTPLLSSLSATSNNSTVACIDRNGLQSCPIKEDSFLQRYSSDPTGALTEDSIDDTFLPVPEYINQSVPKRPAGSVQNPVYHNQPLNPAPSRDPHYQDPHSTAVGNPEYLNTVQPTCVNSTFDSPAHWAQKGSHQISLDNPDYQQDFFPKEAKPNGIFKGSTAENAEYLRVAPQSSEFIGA
EGFR T790M L858R, sequence (P00533 25-1210 T790M/L858R): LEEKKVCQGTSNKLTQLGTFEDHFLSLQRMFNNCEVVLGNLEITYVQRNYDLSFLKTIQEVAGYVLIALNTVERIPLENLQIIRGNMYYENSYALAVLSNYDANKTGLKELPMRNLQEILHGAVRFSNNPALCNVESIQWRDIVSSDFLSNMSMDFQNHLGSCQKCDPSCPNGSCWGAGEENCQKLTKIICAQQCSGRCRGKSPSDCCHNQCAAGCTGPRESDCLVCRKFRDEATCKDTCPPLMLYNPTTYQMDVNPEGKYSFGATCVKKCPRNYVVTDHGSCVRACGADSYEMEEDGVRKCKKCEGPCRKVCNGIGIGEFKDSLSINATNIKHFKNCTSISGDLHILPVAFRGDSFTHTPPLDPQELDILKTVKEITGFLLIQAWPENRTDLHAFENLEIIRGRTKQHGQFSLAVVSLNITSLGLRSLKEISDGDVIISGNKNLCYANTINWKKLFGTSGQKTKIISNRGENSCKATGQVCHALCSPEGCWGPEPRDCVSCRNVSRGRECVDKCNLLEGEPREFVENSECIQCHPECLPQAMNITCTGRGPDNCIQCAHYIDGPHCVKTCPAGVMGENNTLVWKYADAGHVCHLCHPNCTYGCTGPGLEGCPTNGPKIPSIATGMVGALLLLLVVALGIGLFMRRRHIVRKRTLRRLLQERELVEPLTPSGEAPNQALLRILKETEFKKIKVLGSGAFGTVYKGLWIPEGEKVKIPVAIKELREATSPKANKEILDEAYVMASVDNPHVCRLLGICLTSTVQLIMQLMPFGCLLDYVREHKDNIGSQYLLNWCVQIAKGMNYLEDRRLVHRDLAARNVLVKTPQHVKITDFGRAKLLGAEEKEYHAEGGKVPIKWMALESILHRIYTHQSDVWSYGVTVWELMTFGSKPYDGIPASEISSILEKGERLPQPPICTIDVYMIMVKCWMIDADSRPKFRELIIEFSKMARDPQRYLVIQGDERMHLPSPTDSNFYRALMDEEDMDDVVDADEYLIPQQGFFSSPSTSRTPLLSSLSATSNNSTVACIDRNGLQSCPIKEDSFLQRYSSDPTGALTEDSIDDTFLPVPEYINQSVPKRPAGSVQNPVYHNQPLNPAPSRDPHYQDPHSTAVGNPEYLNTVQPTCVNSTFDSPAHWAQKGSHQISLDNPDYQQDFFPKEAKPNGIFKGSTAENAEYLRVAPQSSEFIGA
T1 sequence (P04626 with tags, fused parts or gaps INS775YVMA): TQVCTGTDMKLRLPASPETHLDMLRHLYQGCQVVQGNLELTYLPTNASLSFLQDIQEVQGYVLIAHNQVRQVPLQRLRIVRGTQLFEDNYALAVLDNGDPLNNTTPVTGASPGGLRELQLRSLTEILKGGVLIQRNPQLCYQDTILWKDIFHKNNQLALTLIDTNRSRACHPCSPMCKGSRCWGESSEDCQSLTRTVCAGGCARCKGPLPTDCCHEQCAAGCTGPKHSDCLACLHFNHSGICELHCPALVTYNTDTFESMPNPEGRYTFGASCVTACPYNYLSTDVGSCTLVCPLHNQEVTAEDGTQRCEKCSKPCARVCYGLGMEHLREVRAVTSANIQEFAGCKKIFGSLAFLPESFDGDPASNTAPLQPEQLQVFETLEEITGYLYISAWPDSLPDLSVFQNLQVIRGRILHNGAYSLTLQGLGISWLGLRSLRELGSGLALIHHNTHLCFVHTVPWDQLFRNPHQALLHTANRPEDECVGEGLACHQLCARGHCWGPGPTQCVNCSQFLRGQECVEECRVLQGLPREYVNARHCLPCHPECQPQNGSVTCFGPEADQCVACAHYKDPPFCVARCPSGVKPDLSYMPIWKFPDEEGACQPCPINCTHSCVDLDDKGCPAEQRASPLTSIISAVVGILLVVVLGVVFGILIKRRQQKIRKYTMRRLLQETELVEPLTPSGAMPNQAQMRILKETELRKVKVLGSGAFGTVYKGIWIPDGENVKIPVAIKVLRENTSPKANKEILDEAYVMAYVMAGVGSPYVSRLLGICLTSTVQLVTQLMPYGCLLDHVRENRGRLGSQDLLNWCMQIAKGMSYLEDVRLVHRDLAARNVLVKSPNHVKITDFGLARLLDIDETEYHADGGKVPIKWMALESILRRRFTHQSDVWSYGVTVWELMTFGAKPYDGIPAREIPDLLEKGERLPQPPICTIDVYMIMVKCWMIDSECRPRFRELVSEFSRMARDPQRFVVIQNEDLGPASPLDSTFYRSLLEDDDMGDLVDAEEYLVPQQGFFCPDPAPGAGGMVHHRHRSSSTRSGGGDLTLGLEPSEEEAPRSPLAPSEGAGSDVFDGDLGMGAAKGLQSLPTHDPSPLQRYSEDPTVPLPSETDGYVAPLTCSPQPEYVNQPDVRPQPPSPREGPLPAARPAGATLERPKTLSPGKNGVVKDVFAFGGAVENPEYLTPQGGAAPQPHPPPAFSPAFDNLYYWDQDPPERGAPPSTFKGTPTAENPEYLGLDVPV
EGFR (del746-750), sequence (P00533 with tags, fused parts or gaps DEL746-750): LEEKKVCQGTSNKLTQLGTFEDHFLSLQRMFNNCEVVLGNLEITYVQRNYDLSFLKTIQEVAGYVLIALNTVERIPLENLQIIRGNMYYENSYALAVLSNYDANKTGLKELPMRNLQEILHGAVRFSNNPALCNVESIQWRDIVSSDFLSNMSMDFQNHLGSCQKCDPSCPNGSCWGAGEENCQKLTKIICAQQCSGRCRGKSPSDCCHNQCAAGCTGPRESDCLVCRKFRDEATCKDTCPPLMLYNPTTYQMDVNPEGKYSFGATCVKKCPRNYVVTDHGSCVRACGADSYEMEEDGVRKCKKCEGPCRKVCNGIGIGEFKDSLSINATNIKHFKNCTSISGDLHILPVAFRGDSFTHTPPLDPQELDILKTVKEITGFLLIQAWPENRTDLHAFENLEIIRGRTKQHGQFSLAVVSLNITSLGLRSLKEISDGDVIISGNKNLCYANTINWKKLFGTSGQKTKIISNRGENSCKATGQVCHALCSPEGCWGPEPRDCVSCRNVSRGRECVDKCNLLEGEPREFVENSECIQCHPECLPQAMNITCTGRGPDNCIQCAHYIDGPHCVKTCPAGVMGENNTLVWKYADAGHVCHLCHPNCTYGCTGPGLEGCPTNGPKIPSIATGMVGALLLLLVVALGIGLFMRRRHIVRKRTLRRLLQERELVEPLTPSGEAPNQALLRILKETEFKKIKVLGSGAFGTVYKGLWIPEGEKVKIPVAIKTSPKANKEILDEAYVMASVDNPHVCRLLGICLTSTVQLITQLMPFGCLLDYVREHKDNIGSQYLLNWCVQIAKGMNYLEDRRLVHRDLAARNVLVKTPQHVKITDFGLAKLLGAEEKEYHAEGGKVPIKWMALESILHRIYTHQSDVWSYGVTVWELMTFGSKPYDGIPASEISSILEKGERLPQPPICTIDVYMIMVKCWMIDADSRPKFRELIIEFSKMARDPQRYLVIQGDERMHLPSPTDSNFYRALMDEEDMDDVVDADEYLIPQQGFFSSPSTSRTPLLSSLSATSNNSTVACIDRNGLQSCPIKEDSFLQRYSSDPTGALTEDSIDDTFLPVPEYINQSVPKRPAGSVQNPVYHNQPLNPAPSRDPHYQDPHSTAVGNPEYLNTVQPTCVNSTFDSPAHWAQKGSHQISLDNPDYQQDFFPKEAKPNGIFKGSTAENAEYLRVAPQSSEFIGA

Structure (SMILES)	IC50 (HER2 INS YVMA)	IC50 [1]	IC50 [2]	IC50 (Cuto-17)	IC50 (EGFR T790M L858R)	IC50 (EGFR wt)	IC50 (H1975)	IC50 (A431)	IC50 (EGFR vIII Ba/F3)	IC50 (EGFR L858R)	IC50 (EGFR (del746-750))	IC50 (EGFR L858R T790M Ba/F3)	IC50 (EGFR L858R Ba/F3)
C=CC(=O)Nc1cc(-c2c(-c3ccc(N4CCN(C)CC4)cc3)[nH]c3ncc(-c4cnn(C)c4)cc23)ccc1C [Example 1, N-(2-methyl-5-(5-(1-methyl-1H-pyrazol-4-yl)-2-(4-(4-methylpiperazin-1-yl)phenyl)-1H-pyrrolo[2,3-b]pyridin-3-yl)phenyl)acrylamide]	≤ 0.05 µM	≤ 0.05 µM	0.1 to 0.5 µM	0.1 to 0.5 µM	≤ 0.05 µM	≤ 0.05 µM	0.1 to 0.5 µM	1 to 10 µM	≤ 0.05 µM	–	–	–	–
C=CC(=O)Nc1cc(-c2c(-c3ccc(N4CCN(C)CC4)cc3)[nH]c3ncc(-c4ccnn4C)cc23)ccc1C [Example 2, N-(2-methyl-5-(5-(1-methyl-1H-pyrazol-5-yl)-2-(4-(4-methylpiperazin-1-yl)phenyl)-1H-pyrrolo[2,3-b]pyridin-3-yl)phenyl)acrylamide]	≤ 0.05 µM	0.05 to 0.1 µM	0.1 to 0.5 µM	0.1 to 0.5 µM	≤ 0.05 µM	≤ 0.05 µM	0.1 to 0.5 µM	1 to 10 µM	≤ 0.05 µM	–	–	–	–
C=CC(=O)Nc1cc(-c2c(-c3ccc(N4CCN(C)CC4)cc3)[nH]c3ncc(-c4cnn(C)c4C)cc23)ccc1C [Example 3, N-(5-(5-(1,5-dimethyl-1H-pyrazol-4-yl)-2-(4-(4-methylpiperazin-1-yl)phenyl)-1H-pyrrolo[2,3-b]pyridin-3-yl)-2-methylphenyl)acrylamide]	≤ 0.05 µM	≤ 0.05 µM	≤ 0.05 µM	≤ 0.05 µM	≤ 0.05 µM	≤ 0.05 µM	0.05 to 0.1 µM	0.5 to 1 µM	≤ 0.05 µM	–	–	–	–
C=CC(=O)Nc1cc(-c2c(-c3ccc(N4CCN(C)CC4)cc3)[nH]c3ncc(-c4cnn(CC)c4)cc23)ccc1C [Example 4, N-(5-(5-(1-ethyl-1H-pyrazol-4-yl)-2-(4-(4-methylpiperazin-1-yl)phenyl)-1 H-pyrrolo[2,3-b]pyridin-3-yl)-2-methylphenyl)acrylamide]	≤ 0.05 µM	≤ 0.05 µM	0.05 to 0.1 µM	0.1 to 0.5 µM	≤ 0.05 µM	≤ 0.05 µM	0.1 to 0.5 µM	0.5 to 1 µM	≤ 0.05 µM	–	–	–	–
C=CC(=O)Nc1cc(-c2c(-c3ccc(N4CCN(C)CC4)cc3)[nH]c3ncc(-c4cn(C)nc4C)cc23)ccc1C [Example 5, N-(5-(5-(1,3-dimethyl-1H-pyrazol-4-yl)-2-(4-(4-methylpiperazin-1-yl)phenyl)-1H-pyrrolo[2,3-b]pyridin-3-yl)-2-methylphenyl)acrylamide]	≤ 0.05 µM	≤ 0.05 µM	0.1 to 0.5 µM	0.1 to 0.5 µM	≤ 0.05 µM	≤ 0.05 µM	0.5 to 1 µM	1 to 10 µM	0.05 to 0.1 µM	≤ 0.05 µM	≤ 0.05 µM	–	–
C=CC(=O)Nc1cc(-c2c(-c3ccc(N4CCN(C)CC4)cc3)[nH]c3ncc(-c4cnn(C5CC5)c4)cc23)ccc1C [Example 6, N-(5-(5-(1-cyclopropyl-1H-pyrazol-4-yl)-2-(4-(4-methylpiperazin-1-yl)phenyl)-1H-pyrrolo[2,3-b]pyridin-3-yl)-2-methylphenyl)acrylamide]	≤ 0.05 µM	≤ 0.05 µM	≤ 0.05 µM	0.1 to 0.5 µM	≤ 0.05 µM	≤ 0.05 µM	0.1 to 0.5 µM	1 to 10 µM	≤ 0.05 µM	≤ 0.05 µM	≤ 0.05 µM	≤ 0.05 µM	≤ 0.05 µM
C=CC(=O)Nc1cc(-c2c(-c3ccc(N4CCN(C)CC4)cc3)[nH]c3ncc(-c4cnn(CCOC)c4)cc23)ccc1C [Example 7, N-(5-(5-(1-(2-methoxyethyl)-1H-pyrazol-4-yl)-2-(4-(4-methylpiperazin-1-yl)phenyl)-1H-pyrrolo[2,3-b]pyridin-3-yl)-2-methylphenyl)acrylamide]	≤ 0.05 µM	≤ 0.05 µM	0.1 to 0.5 µM	0.1 to 0.5 µM	≤ 0.05 µM	≤ 0.05 µM	0.1 to 0.5 µM	1 to 10 µM	≤ 0.05 µM	–	–	–	–
